Experiments:
[1] = target: T1, β5 integrin cytoplasmic domain (Homo sapiens, UniProt P18084); test: Phage binding to immobilized GST-β5cyto; conditions: phage colonies
T1 construct: screenings involving the β5 cytoplasmic domain fusion protein
T1 sequence (P18084 743-799 limits assumed): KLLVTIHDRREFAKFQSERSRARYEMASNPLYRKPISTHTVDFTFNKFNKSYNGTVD
Method: (§1) FIG. 19. Binding of β5 cytoplasmic domain-selected phage to immobilized proteins. GST fusion proteins or GST alone were coated on microtiter wells at 10 μg/ml and used to bind phage-expressing endostatin binding peptides. […] The data represent the mean colony counts from triplicate wells, with standard error less than 10% of the mean.
(§2) β3 and β5 cytoplasmic domain-binding peptides were isolated by screening multiple phage libraries with recombinant GST fusion proteins that contained either GST-β3cyto or GST-β5cyto coated onto microtiter wells. Immobilized GST was used as a negative control for enrichment during the panning of each cytoplasmic domain. Phage were sequenced from randomly selected clones after three rounds of panning as disclosed elsewhere (Koivunen et al., Biotechnology 13:265-270, 1995; Pasqualini et al., 1995). Distinct sequences were isolated that interacted specifically with the β3 or with the β5 cytoplasmic domains (Table 4). Randomly selected clones from panning rounds II and III were sequenced. Amino acid sequences of the phagemid encoded peptides were deduced from nucleotide sequences. The ratios were calculated by dividing the number of colonies recovered from β3-GST-coated wells and those recovered from GST or BSA.
A similar strategy was used to determine the specificity of the phage isolated in the screenings involving the β5 cytoplasmic domain fusion protein.

SK-RC-49/APA cells = test: Phage binding specificity assay on SK-RC-49/APA cells; type: cell-based; conditions: soluble peptide, not shown
Method: The cell binding assay was performed with an input of 10^9 TU as described for the cell panning. The specificity was confirmed by adding […] (SEQ ID NO:56) peptide to the binding medium in increasing concentrations. For phage binding on immunocaptured APA, wells were blocked for 1 h at room temperature with PBS/3% BSA and incubated with 10^9 TU for 1 h at room temperature in 50 μl PBS/3% BSA. After eight washes in PBS/1% BSA/0.01% Tween-20 and two washes in PBS, phage were rescued by adding 200 μl of exponentially growing K91Kan E. coli. Each experiment was repeated at least three times.

[2] = test system: chicken chorioallantoic membrane (CAM); test: CAM assay for angiogenesis; type: in vivo
Method: In vivo angiogenesis was evaluated by a CAM assay (Ribatti et al., 1994). Fertilized eggs from White Leghorn chickens were maintained in constant humidity at 37° C. On the third day of incubation, a square window was opened in the eggshell and 2-3 ml of albumen was removed to detach the developing CAM from the shell. The window was sealed with a glass plate of the same size and the eggs were returned to the incubator. At day 8, 1 mm^3 sterilized gelatin sponges (Gelfoam, Upjohn Co, Kalamazoo, […]) were adsorbed with VEGF-A (20 ng, R&D System) and either […] (SEQ ID NO:56) or control […] (SEQ ID NO:57) peptide (1 mM) in 3 μl PBS and implanted on the top of the growing CAMs under sterile conditions. CAMs were examined daily until day 12 and photographed in ovo with a Leica stereomicroscope. Capillaries emerging from the sponge were counted. The assay was repeated twice.

HUVECs [3] = test: Three-dimensional cell culture on Matrigel; type: cell-based, human; conditions: HUVECs on three-dimensional matrix gel, not shown
Method: Matrigel (Collaborative Research, Bedford, Mass.) was added at 100 μl per well to 48-well tissue culture plates and allowed to solidify for 10 min at 37° C. HUVECs were starved for 24 h in M199 medium supplemented with 2% FCS before being harvested in PBS containing 2.5 mM EDTA. 10^4 cells were gently added to each of the triplicate wells and allowed to adhere to the gel coating for 30 min at 37° C. Then, medium was replaced with indicated concentrations of […] (SEQ ID NO:56) or […] (SEQ ID NO:57) peptides in complete medium. The plates were photographed after 24 h with an inverted microscope (Canon). The assay was repeated three times.

HUVECs [4] = test: HUVEC chemotaxis assay (Boyden chamber); type: cell-based, human; conditions: HUVECs, VEGF-A, not shown
Method: FIG. 33. […] (SEQ ID NO:56) inhibits HUVEC migration. HUVECs were stimulated with VEGF-A (10 ng/ml). The assay was performed in a Boyden microchemotaxis chamber, and cells were allowed to migrate through an 8-μm pore filter for 5 h at 37° C. […] (SEQ ID NO:57) (control) and […] (SEQ ID NO:56) peptides were tested at 1 mM concentration. Migrated cells were stained and five high-power fields (magnitude 100×) for each microwell were counted. Error bars are the standard error of the means of triplicate microwells.
A cell migration assay was performed in a 48-well microchemotaxis chamber (NeuroProbe, Gaithersburg, Md.) according to Bussolini et al. (1995). Polyvinylpyrrolidone-free polycarbonate filters (Nucleopore, Cambridge, Mass.) with 8-μm pores were coated with 1% gelatin for 10 min at room temperature and equilibrated in M199 medium supplemented with 2% FCS. […] (SEQ ID NO:56) or control […] (SEQ ID NO:57) peptide (1 mM) was placed in the lower compartment of a Boyden chamber in M199 medium supplemented with 2% FCS and 10 ng/ml VEGF-A (R&D System). Subconfluent cultures that had been starved overnight were harvested in PBS containing 2.5 mM EDTA, washed once in PBS, and resuspended in M199 medium containing 2% FCS at a final concentration of 2×10^6 cells/ml. […] Five random high-power fields (magnitude 100×) were counted in each well. […]

endothelial cells = test: Endothelial cell migration (chemotaxis) assay with penetratin peptide chimeras; type: cell-based, human; conditions: 48-well microchemotaxis chamber
Method: FIG. 25. Effect of penetratin peptide chimeras on endothelial cell migration. Cell migration assay were performed, in a 48-well microchemotaxis chamber. Five random high-power fields (magnitude 40×) were counted in each well.
Cell migration assays were performed as follows: 48-well microchemotaxis chambers were used. Polyvinylpyrrolidone-free polycarbonate filters (Nucleopore, Cambridge, Mass.) with 8-μm pores were coated with 1% gelatin for 10 min at room temperature and equilibrated in M199 medium supplemented with 2% FCS. Peptides were placed in the lower compartment of a Boyden chamber in M199 supplemented with 2% FCS, 20 ng/ml VEGF-A (R&D System), and 1 U/ml heparin. Overnight-starved subconfluent cultures were quickly trypsinized, and resuspended in M199 containing 2% FCS at a final concentration of 2×10^6 cells/ml. After the filter was placed between lower and upper chambers, 50 μl of the cell suspension was seeded in the upper compartment. Cells were allowed to migrate for 5 h at 37° C. in a humidified atmosphere with 5% CO2. The filter was then removed, and cells on the upper side were scraped with a rubber policeman. […] Five random high-power fields (magnitude 40×) were counted in each well.
Cell migration was assayed in a 48-well microchemotaxis chamber. […] Five random high-power fields (magnitude 40×) were counted in each well.

[5] = target: T2, β3 integrin cytoplasmic domain (Homo sapiens, UniProt P05106); test: Phage binding to immobilized GST-β3cyto
T2 sequence (P05106 742-788 limits assumed): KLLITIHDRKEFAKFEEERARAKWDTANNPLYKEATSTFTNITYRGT
Method: as §1, with “18.” for “19.”, “β3” for “β5”, “targeting” for “binding”, “error of” for “error”
as §2, with “Amino acid sequences of the phagemid encoded peptides were deduced from nucleotide sequences.” left out
The specificity of the interaction with β3 or β5 cytoplasmic domains was determined by calculating the ratios of phage bound to the cytoplasmic domain containing-fusion proteins (β3 or β5) versus GST alone (negative control). […]

CKLWQEDGY
β5/BSA Ratio ([1]; β5 versus BSA): 665 | β5/GST Ratio ([1]; β5 versus GST): 1.8

GACVRLSACGA [reference compound]
competition with CPKVCPRECESNC phage for binding to SK-RC-49/APA cells (SK-RC-49/APA cells): no competitive activity | BLOOD VESSEL NUMBERS ([2]; VEGF-A 20 ng, peptide 1 mM, mean and standard error, two experiments): 56.5 ± 2.12 | effect on the number of growing vessels ([2]; not shown): no effect on the number of growing vessels | formation of capillary-like network (HUVECs [3]): did not affect HUVEC morphogenesis | effect on cell migration or proliferation (HUVECs [4]): no significant effect on cell migration or proliferation

GLDTYRGSP
effect on endothelial cell migration (endothelial cells): increase cell migration

AGWLYMSWK
β3/BSA Ratio ([5]; phage colonies recovered from β3-GST-coated wells divided by BSA): 2.4 | β3/GST Ratio ([5]; phage colonies recovered from β3-GST-coated wells divided by GST): 1.8

SDNRYIGSW
effect on endothelial cell migration (endothelial cells): increase cell migration

Source: patent US8252764B2, “Compositions and methods of use of targeting peptides against placenta and adipose tissues” (priority 2000, dated 2012)
